{"source": "ChEMBL document CHEMBL4184280", "about": "“Novel nicotinamide analog as inhibitor of nicotinamide N-methyltransferase” (Bioorg Med Chem Lett, 2018)", "key": {"[1]": {"molecular_target": "T1, Nicotinamide N-methyltransferase (Homo sapiens, UniProt P40261)", "T1 sequence (P40261 whole entry)": "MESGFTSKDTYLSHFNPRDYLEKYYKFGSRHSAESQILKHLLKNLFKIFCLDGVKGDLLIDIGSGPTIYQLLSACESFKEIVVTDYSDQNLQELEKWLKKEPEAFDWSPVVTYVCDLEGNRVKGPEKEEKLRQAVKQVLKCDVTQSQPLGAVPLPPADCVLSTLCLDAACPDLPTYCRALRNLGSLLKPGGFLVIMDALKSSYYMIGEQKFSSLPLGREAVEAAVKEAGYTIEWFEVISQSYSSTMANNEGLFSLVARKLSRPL"}, "Cytochrome P450 2C9": {"molecular_target": "Cytochrome P450 2C9 (Homo sapiens, UniProt P11712)", "sequence (P11712 whole entry)": "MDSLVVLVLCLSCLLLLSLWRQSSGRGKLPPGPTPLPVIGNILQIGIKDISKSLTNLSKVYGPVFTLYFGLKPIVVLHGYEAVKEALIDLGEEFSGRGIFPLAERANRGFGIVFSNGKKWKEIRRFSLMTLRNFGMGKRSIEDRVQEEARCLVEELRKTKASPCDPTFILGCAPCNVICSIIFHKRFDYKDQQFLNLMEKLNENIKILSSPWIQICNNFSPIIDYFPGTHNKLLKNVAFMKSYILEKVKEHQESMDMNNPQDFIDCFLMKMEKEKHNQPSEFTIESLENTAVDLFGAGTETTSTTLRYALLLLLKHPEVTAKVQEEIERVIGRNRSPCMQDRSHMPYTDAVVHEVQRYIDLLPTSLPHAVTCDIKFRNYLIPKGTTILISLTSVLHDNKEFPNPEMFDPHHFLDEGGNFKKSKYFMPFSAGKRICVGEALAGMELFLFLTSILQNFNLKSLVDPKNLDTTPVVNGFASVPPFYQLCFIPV", "test": "Inhibition of CYP2C9 (unknown origin)", "format": "ADME"}, "[2]": {"test": "Half life in C57Bl6/N mouse at 10 mg/kg, po", "format": "ADME, organism-based", "settings": "in vivo"}, "[3]": {"test": "Cmax in C57Bl6/N mouse at 1 mg/kg, iv", "format": "ADME, organism-based", "parameters": "dose 1 mg/kg, route intravenous", "settings": "in vivo"}, "Cytochrome P450 3A4": {"molecular_target": "Cytochrome P450 3A4 (Homo sapiens, UniProt P08684)", "sequence (P08684 whole entry)": "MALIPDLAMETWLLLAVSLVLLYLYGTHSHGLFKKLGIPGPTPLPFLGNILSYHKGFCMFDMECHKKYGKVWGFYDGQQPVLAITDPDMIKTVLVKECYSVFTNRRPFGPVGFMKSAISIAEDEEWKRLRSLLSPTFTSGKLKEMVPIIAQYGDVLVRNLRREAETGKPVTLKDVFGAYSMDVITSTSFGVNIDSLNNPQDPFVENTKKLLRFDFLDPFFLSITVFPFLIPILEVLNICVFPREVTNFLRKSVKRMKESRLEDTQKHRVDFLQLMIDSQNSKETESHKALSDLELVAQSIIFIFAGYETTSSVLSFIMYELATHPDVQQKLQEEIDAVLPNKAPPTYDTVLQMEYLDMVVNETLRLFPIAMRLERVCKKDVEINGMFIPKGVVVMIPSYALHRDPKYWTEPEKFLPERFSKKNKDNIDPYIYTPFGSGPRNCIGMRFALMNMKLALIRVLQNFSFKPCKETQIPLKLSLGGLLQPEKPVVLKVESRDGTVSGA", "test": "Inhibition of CYP3A4 (unknown origin)", "format": "ADME"}, "[4]": {"test": "Half life in C57Bl6/N mouse at 1 mg/kg, iv", "format": "ADME, organism-based", "settings": "in vivo"}, "[5]": {"test": "AUC in C57Bl6/N mouse at 10 mg/kg, po", "format": "ADME, organism-based", "settings": "in vivo"}, "[6]": {"test": "Clearance in C57Bl6/N mouse at 10 mg/kg, po or 1 mg/kg, iv", "format": "ADME, organism-based", "settings": "in vivo"}, "[7]": {"molecular_target": "T2, Nicotinamide N-methyltransferase (Mus musculus, UniProt O55239)", "T2 sequence (O55239 whole entry)": "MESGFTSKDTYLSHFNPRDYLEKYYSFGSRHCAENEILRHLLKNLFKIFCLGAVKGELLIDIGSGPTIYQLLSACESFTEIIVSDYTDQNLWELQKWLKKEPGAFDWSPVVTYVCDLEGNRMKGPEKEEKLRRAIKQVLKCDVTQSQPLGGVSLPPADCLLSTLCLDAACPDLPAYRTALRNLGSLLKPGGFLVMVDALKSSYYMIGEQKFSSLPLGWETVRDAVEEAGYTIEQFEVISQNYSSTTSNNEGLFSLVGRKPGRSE", "test": "Inhibition of NNMT in mouse 3T3L1 cells assessed as reduction in MNA production after 24 hrs by LC-MS/MS analysis", "format": "cell-based"}, "[8]": {"test": "AUC in C57Bl6/N mouse at 1 mg/kg, iv", "format": "ADME, organism-based", "settings": "in vivo"}, "[9]": {"test": "Volume of distribution in C57Bl6/N mouse at 10 mg/kg, po or 1 mg/kg, iv", "format": "ADME, organism-based", "settings": "in vivo"}, "[10]": {"test": "Solubility of the compound", "format": "physicochemical"}, "Cytochrome P450 2D6": {"molecular_target": "Cytochrome P450 2D6 (Homo sapiens, UniProt P10635)", "sequence (P10635 whole entry)": "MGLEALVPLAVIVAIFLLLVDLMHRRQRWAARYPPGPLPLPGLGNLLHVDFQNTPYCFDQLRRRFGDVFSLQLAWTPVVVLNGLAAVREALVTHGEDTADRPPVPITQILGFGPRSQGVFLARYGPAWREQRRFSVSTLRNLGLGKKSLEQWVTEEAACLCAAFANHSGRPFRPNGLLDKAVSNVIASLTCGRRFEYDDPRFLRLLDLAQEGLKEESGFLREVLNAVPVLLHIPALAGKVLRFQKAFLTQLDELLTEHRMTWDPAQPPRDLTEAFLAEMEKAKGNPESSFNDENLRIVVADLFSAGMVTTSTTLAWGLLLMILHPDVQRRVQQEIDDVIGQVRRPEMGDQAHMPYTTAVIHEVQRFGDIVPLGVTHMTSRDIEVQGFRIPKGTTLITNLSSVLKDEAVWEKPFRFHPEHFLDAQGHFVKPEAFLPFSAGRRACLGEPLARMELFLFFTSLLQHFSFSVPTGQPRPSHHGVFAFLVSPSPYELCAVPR", "test": "Inhibition of CYP2D6 (unknown origin)", "format": "ADME"}, "[11]": {"test": "Metabolic stability in human liver microsomes assessed as parent compound remaining after 30 mins", "format": "ADME, microsome", "settings": "read-out: Stability"}, "[12]": {"test": "Metabolic stability in mouse liver microsomes assessed as parent compound remaining after 30 mins", "format": "ADME, microsome", "settings": "read-out: Stability"}, "[13]": {"test": "Cmax in C57Bl6/N mouse at 10 mg/kg, po", "format": "ADME, organism-based", "parameters": "dose 10 mg/kg, route oral", "settings": "in vivo"}, "Mus musculus": {"tested_on": "Mus musculus", "test": "In vivo inhibition of NNMT in C57Bl6/N mouse assessed as reduction in plasma MNA level at 50 mg/kg, po measured after 2 hrs by LC-MS/MS analysis", "format": "functional"}, "Cytochrome P450 2C19": {"molecular_target": "Cytochrome P450 2C19 (Homo sapiens, UniProt P33261)", "sequence (P33261 whole entry)": "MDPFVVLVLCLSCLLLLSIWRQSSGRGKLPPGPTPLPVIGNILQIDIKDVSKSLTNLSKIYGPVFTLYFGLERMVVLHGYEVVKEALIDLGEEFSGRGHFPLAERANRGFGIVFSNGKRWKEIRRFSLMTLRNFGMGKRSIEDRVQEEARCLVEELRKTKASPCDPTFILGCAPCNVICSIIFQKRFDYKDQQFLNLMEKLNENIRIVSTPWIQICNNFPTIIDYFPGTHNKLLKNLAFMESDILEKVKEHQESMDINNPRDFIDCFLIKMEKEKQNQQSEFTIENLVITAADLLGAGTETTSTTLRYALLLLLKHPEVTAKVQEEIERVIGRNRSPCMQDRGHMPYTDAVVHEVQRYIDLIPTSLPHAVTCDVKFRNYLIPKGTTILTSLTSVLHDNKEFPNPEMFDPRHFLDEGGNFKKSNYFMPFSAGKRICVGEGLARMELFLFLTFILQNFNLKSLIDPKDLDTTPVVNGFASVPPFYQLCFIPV", "test": "Inhibition of CYP2C19 (unknown origin)", "format": "ADME"}, "[14]": {"molecular_target": "T2, Nicotinamide N-methyltransferase", "test": "Inhibition of mouse NNMT at 30 uM preincubated for 30 mins followed by nicotinamide substrate and SAM addition measured after 60 mins by fluorescence assay"}, "[15]": {"test": "Oral bioavailability in C57Bl6/N mouse at 10 mg/kg", "format": "ADME, organism-based", "settings": "in vivo"}, "[16]": {"test": "Metabolic stability in rat liver microsomes assessed as parent compound remaining after 30 mins", "format": "ADME, microsome", "settings": "read-out: Stability"}}}
{"smiles": "CN(C)c1ccc(C(N)=O)cn1", "values": [{"measurement": "IC50", "setting": "[1]", "value": "> 30", "unit": "µM"}]}
{"smiles": "Cn1cc(C(N)=O)ccc1=O", "values": [{"measurement": "IC50", "setting": "[1]", "value": "> 30", "unit": "µM"}]}
{"smiles": "COc1ccc(NC(C)=O)cn1", "values": [{"measurement": "IC50", "setting": "[1]", "value": "> 30", "unit": "µM"}]}
{"smiles": "Cc1ccc(C(N)=O)cn1", "values": [{"measurement": "IC50", "setting": "[1]", "value": "> 10", "unit": "µM"}]}
{"smiles": "COc1ccc(C(=N)N)cn1", "values": [{"measurement": "IC50", "setting": "[1]", "value": "> 30", "unit": "µM"}]}
{"smiles": "COc1ccc(-c2nnn[nH]2)cn1", "values": [{"measurement": "IC50", "setting": "[1]", "value": "> 30", "unit": "µM"}]}
{"smiles": "COc1ccc(C(N)=O)cn1", "values": [{"measurement": "IC50", "setting": "[1]", "value": "2.36 to 2.52", "unit": "µM"}]}
{"smiles": "[2H]C([2H])([2H])Oc1ccc(C(N)=O)cn1", "values": [{"measurement": "IC50", "setting": "[1]", "value": "0.922 to 1.61", "unit": "µM"}]}
{"smiles": "CSc1ccc(C(N)=O)cn1", "values": [{"measurement": "IC50", "setting": "[1]", "value": "> 30", "unit": "µM"}]}
{"smiles": "COc1cnc(C(N)=O)cn1", "values": [{"measurement": "IC50", "setting": "[1]", "value": "> 30", "unit": "µM"}]}
{"smiles": "CCNC(=O)c1ccc(OC)nc1", "values": [{"measurement": "IC50", "setting": "[1]", "value": "> 30", "unit": "µM"}]}
{"smiles": "CCOc1cc(C)ncc1C(N)=O", "values": [{"measurement": "IC50", "setting": "[1]", "value": "> 30", "unit": "µM"}]}
{"smiles": "NC(=O)c1ccc(C(F)(F)F)nc1", "values": [{"measurement": "IC50", "setting": "[1]", "value": "> 30", "unit": "µM"}]}
{"smiles": "NC(=O)c1ccc(OC(F)F)nc1", "values": [{"measurement": "IC50", "setting": "[1]", "value": "> 30", "unit": "µM"}]}
{"smiles": "CCOc1nc(C)ccc1C(N)=O", "values": [{"measurement": "IC50", "setting": "[1]", "value": "> 30", "unit": "µM"}]}
{"smiles": "CCc1ccc(C(N)=O)cn1", "values": [{"measurement": "IC50", "setting": "[1]", "value": "> 30", "unit": "µM"}]}
{"smiles": "COc1ccc(C(N)=O)cc1F", "values": [{"measurement": "IC50", "setting": "[1]", "value": "> 30", "unit": "µM"}]}
{"smiles": "CNc1ccc(C(N)=O)cn1", "values": [{"measurement": "IC50", "setting": "Cytochrome P450 2C9", "value": "> 20", "unit": "µM"}, {"measurement": "half-life", "setting": "[2]", "value": 1.2, "unit": "h"}, {"measurement": "Cmax", "setting": "[3]", "value": 587, "unit": "ng/mL"}, {"measurement": "IC50", "setting": "Cytochrome P450 3A4", "value": "> 20", "unit": "µM"}, {"measurement": "half-life", "setting": "[4]", "value": 0.8, "unit": "h"}, {"measurement": "AUC", "setting": "[5]", "value": 1090, "unit": "ng·h/mL"}, {"measurement": "clearance", "setting": "[6]", "value": 27.9, "unit": "mL/min/kg"}, {"measurement": "IC50", "setting": "[7]", "value": 2.1, "unit": "µM"}, {"measurement": "AUC", "setting": "[8]", "value": 511, "unit": "ng·h/mL"}, {"measurement": "Vd", "setting": "[9]", "value": 1.85, "unit": "L/kg"}, {"measurement": "solubility", "setting": "[10]", "value": 200, "unit": "µM"}, {"measurement": "IC50", "setting": "Cytochrome P450 2D6", "value": "> 20", "unit": "µM"}, {"measurement": "remaining at 0.5 h", "setting": "[11]", "value": 85, "unit": "%"}, {"measurement": "remaining at 0.5 h", "setting": "[12]", "value": 69, "unit": "%"}, {"measurement": "Cmax", "setting": "[13]", "value": 1430, "unit": "ng/mL"}, {"measurement": "inhibition in vivo at 50 mg/kg", "setting": "Mus musculus", "value": 80, "unit": "%"}, {"measurement": "IC50", "setting": "Cytochrome P450 2C19", "value": "> 20", "unit": "µM"}, {"measurement": "IC50", "setting": "[14]", "value": 4.5, "unit": "µM"}, {"measurement": "bioavailability", "setting": "[15]", "value": 19, "unit": "%"}, {"measurement": "remaining at 0.5 h", "setting": "[16]", "value": 97, "unit": "%"}]}
{"smiles": "COc1ccc(C(N)=O)cc1", "values": [{"measurement": "IC50", "setting": "[1]", "value": "> 30", "unit": "µM"}]}
